The source made the active and inactive calls. The calls are words filed in the database; no cut-off is given here.
How the values were obtained:
Toxoplasma gondii [1] = experiment: (§1) Antiprotozoal activity against 5 MOI SB-203580-resistant Toxoplasma gondii SBRMe49-2 tachyzoites infected in confluent HFF assessed as inhibition of [3H]uracil incorporation into tachyzoites at 0.25 to 10 uM treated 4 hrs after infection measured after overnight incubation post uracil addition by liquid scintillation counting; format: functional, organism-based
Toxoplasma gondii [2] = experiment: microbe, parasite or virus in culture; settings: RH
Description: Antiprotozoal activity against 1 MOI Toxoplasma gondii RH tachyzoites infected in confluent HFF assessed as inhibition of [3H]uracil incorporation into tachyzoites treated 4 hrs after infection measured after overnight incubation post uracil addition by liquid scintillation counting

Encephalitozoon cuniculi [3] = experiment: Antiprotozoal activity against Encephalitozoon cuniculi infected in CD8 knockout […] mouse assessed as prolongation of survival of mous-related absence of ascites fluid and sluggishness at 36 mg/kg, ip administered 2 days after infection for 15 consecutive days; format: functional, organism-based; parameters: dose 36 mg/kg
Toxoplasma gondii [4] = experiment: Antiprotozoal activity against 100 Toxoplasma gondii RH tachyzoites infected in CBA/J mouse assessed as prolongation of survival of mous at 30 mg/kg, ip administered 24 hrs postinfection twice daily for 7 consecutive days; format: functional, organism-based; parameters: dose 30 mg/kg
Toxoplasma gondii [5] = experiment: Antiprotozoal activity against 1000 Toxoplasma gondii RH tachyzoites infected in CBA/J mouse assessed as prolongation of survival of mous at 15 mg/kg, ip administered 24 hrs postinfection for 7 consecutive days; format: functional, organism-based; parameters: dose 15 mg/kg
Toxoplasma gondii [6] = experiment: Antiprotozoal activity against 20 Toxoplasma gondii RH tachyzoites infected in CBA/J mouse assessed as prolongation of survival of mous at 60 mg/kg, ip administered 2 hrs postinfection for 7 consecutive days; format: functional; settings: route intraperitoneal
Toxoplasma gondii [7] = experiment: microbe, parasite or virus in culture; settings: ME49
Description: Antiprotozoal activity against 5 MOI Toxoplasma gondii Me49 tachyzoites infected in confluent HFF assessed as inhibition of [3H]uracil incorporation into tachyzoites treated 4 hrs after infection measured after overnight incubation post uracil addition by liquid scintillation counting

Toxoplasma gondii [8] = experiment: Antiprotozoal activity against 100 Toxoplasma gondii RH tachyzoites infected in CBA/J mouse survival at 60 mg/kg, ip administered 2 hrs postinfection once daily for 7 consecutive days in presence of pyrimethamine 5 mg/kg, po; format: functional
Mus musculus [9] = experiment: Toxicity in CBA/J mouse at 17 mg/kg, po; format: organism-based; parameters: dose 17 mg/kg, route oral; settings: in vivo
Toxoplasma gondii [10] = experiment: Antiprotozoal activity against 2000Toxoplasma gondii RH tachyzoites infected 30 days after initial 100 parasite infection in CBA/J mouse assessed as mouse survival time at 5 mg/kg, ip administered 2 hrs postinfection for 7 consecutive days; settings: route intraperitoneal
Toxoplasma gondii [11] = experiment: Antiprotozoal activity against 100 Toxoplasma gondii RH tachyzoites infected in CBA/J mouse assessed as prolongation of survival of mous at 60 mg/kg, ip administered 24 hrs postinfection once daily for 7 consecutive days; format: functional, organism-based; parameters: dose 60 mg/kg
Toxoplasma gondii [12] = experiment: Antiprotozoal activity against 1000 Toxoplasma gondii RH tachyzoites infected in CBA/J mouse assessed as prolongation of survival of mous at 30 mg/kg, ip administered 24 hrs postinfection for 7 consecutive days; format: functional, organism-based; parameters: dose 30 mg/kg
Toxoplasma gondii [13] = experiment: Antiprotozoal activity against 20 Toxoplasma gondii RH tachyzoites infected in CBA/J mouse assessed as prolongation of survival of mous at 50 mg/kg, po administered 2 hrs postinfection for 7 consecutive days; format: functional, organism-based; parameters: dose 50 mg/kg
[14] = target: Mitogen-activated protein kinase 14 (Homo sapiens, UniProt Q16539)
Mitogen-activated protein kinase 14, sequence (Q16539 whole entry): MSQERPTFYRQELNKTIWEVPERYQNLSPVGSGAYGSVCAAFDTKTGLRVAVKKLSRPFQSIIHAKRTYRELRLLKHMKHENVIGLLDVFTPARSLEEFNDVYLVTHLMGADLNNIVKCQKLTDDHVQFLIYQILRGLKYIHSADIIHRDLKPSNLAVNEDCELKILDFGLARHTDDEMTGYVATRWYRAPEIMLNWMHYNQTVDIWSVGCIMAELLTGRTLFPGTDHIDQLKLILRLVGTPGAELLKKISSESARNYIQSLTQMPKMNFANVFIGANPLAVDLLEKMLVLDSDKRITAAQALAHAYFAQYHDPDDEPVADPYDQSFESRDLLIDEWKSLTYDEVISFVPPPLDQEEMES
Description: Inhibition of human recombinant p38alpha assessed as [gamma33P]ATP utilization by microplate scintillation counting

Mus musculus [15] = experiment: Toxicity in CBA/J mouse at 30 mg/kg, ip; format: organism-based; parameters: dose 30 mg/kg, route intraperitoneal; settings: in vivo
Encephalitozoon cuniculi [16] = experiment: Antiprotozoal activity against Encephalitozoon cuniculi infected in CD8 knockout […] mouse mouse survival at 6 mg/kg, ip administered 2 days after infection for 15 consecutive days; format: functional, organism-based; parameters: dose 6 mg/kg
Toxoplasma gondii [17] = experiment: Antiprotozoal activity against 1000 Toxoplasma gondii RH tachyzoites infected in CBA/J mouse assessed as prolongation of survival of mous at 60 mg/kg, ip administered 24 hrs postinfection for 7 consecutive days; format: functional, organism-based; parameters: dose 60 mg/kg
Toxoplasma gondii [18] = experiment: Antiprotozoal activity against 100 Toxoplasma gondii RH tachyzoites infected in CBA/J mouse assessed as prolongation of survival of mous at 30 mg/kg, ip twice daily for 7 consecutive days administered 2 hrs postinfection; format: functional, organism-based; parameters: dose 30 mg/kg
Mus musculus [19] = experiment: Toxicity in CBA/J mouse assessed as occasional and transient fur ruffling at 60 mg/kg, ip; format: organism-based; parameters: dose 60 mg/kg, route intraperitoneal; settings: in vivo
Toxoplasma gondii [20] = experiment: Antiprotozoal activity against 100 Toxoplasma gondii RH tachyzoites infected in CBA/J mouse survival at 60 mg/kg, ip administered 2 hrs postinfection once daily for 7 consecutive days in presence of sulfadiazine 75 mg/liter; format: functional; settings: route intraperitoneal
[21] = target: T1, Mitogen-activated protein kinase 1 (Toxoplasma gondii, UniProt Q5SC61); experiment: Inhibition of Toxoplasma gondii recombinant MAPK1 expressed in Escherichia coli; format: cell-free
T1 sequence (Q5SC61 whole entry): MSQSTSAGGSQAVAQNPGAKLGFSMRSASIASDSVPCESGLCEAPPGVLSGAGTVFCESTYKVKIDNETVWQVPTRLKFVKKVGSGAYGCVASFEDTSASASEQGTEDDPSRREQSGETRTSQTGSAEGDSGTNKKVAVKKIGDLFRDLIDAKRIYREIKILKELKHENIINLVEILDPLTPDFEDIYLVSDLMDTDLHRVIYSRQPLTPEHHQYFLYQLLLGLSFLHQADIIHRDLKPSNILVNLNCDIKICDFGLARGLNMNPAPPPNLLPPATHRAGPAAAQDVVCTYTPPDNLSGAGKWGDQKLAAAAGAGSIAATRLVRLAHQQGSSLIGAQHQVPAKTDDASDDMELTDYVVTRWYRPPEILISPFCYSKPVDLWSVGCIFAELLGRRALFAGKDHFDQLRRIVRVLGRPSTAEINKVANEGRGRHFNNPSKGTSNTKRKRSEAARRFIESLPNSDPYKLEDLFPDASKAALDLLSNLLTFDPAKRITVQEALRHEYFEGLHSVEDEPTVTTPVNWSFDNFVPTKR

Toxoplasma gondii [22] = experiment: Antiprotozoal activity against 1000 Toxoplasma gondii RH tachyzoites infected in CBA/J mouse assessed as prolongation of survival of mous at 3.8 mg/kg, ip administered 24 hrs postinfection for 7 consecutive days; format: functional, organism-based; parameters: dose 3.8 mg/kg
Toxoplasma gondii [23] = experiment: Antiprotozoal activity against 20 Toxoplasma gondii RH tachyzoites infected in CBA/J mouse assessed as prolongation of survival of mous at 17 mg/kg, po administered 2 hrs postinfection for 7 consecutive days; format: functional, organism-based; parameters: dose 17 mg/kg
Toxoplasma gondii [24] = experiment: Antiprotozoal activity against 20 Toxoplasma gondii RH tachyzoites infected in CBA/J mouse assessed as prolongation of survival of mous at 30 mg/kg, ip administered 2 hrs postinfection for 7 consecutive days; format: functional; settings: route intraperitoneal
Toxoplasma gondii [25] = experiment: Antiprotozoal activity against 2000Toxoplasma gondii RH tachyzoites infected 30 days after initial 20 parasite infection in CBA/J mouse assessed as mouse survival time at 30 mg/kg, ip administered 2 hrs postinfection for 7 consecutive days; settings: route intraperitoneal
Toxoplasma gondii [26] = experiment: Antiprotozoal activity against 1000 Toxoplasma gondii RH tachyzoites infected in CBA/J mouse assessed as prolongation of survival of mous at 7.5 mg/kg, ip administered 24 hrs postinfection for 7 consecutive days; format: functional, organism-based; parameters: dose 7.5 mg/kg
Mus musculus [27] = experiment: Toxicity in CBA/J mouse at 50 mg/kg, po; format: organism-based; parameters: dose 50 mg/kg, route oral; settings: in vivo
Toxoplasma gondii [28] = experiment: Antiprotozoal activity against 2000Toxoplasma gondii RH tachyzoites infected 30 days after initial 100 parasite infection in CBA/J mouse assessed as mouse survival time at 60 mg/kg, ip administered 2 hrs postinfection for 7 consecutive days; settings: route intraperitoneal
Toxoplasma gondii [29] = experiment: Antiprotozoal activity against 2000Toxoplasma gondii RH tachyzoites infected 30 days after initial 20 parasite infection in CBA/J mouse assessed as mouse survival time at 60 mg/kg, ip administered 2 hrs postinfection for 7 consecutive days; settings: route intraperitoneal
Toxoplasma gondii [30] = experiment: Antiprotozoal activity against 100 Toxoplasma gondii RH tachyzoites infected in CBA/J mouse survival at 60 mg/kg, ip administered 2 hrs postinfection once daily for 7 consecutive days; format: functional; settings: route intraperitoneal
Toxoplasma gondii [31] = experiment: as §1, with “wild type” for “SB-203580-resistant”, “Me49” for “SBRMe49-2”; format: functional, organism-based

Question: With `Oc1ccc(-c2nc(-c3ccc(F)cc3)c(-c3ccncc3)[nH]2)cc1` as the molecule, how does the Activity (Toxoplasma gondii [1]) read?
Answer: inactive

Question: Which IC50 (Toxoplasma gondii [2]) does the source give for `OCCC#Cc1nc(-c2ccc(F)cc2)c(-c2ccncc2)n1CCCc1ccccc1` [RWJ-67657] here?
Answer: 5 µM

Question: What about the Activity (Encephalitozoon cuniculi [3]) of the same molecule?
Answer: Active

Question: What about the Activity (Toxoplasma gondii [4]) of the same molecule?
Answer: inactive

Question: And the Activity (Toxoplasma gondii [5])?
Answer: inactive

Question: And the Activity (Toxoplasma gondii [6])?
Answer: 100%

Question: What about the IC50 (Toxoplasma gondii [7]) of the same molecule?
Answer: 0.8 µM

Question: And the Activity (Toxoplasma gondii [8])?
Answer: 80%

Question: What about the Activity (Mus musculus [9]) of the same molecule?
Answer: Non-toxic

Question: What about the Activity (Toxoplasma gondii [10]) of the same molecule?
Answer: 30 days

Question: And the Activity (Toxoplasma gondii [11])?
Answer: inactive

Question: What about the Activity (Toxoplasma gondii [12]) of the same molecule?
Answer: inactive

Question: What about the Activity (Toxoplasma gondii [13]) of the same molecule?
Answer: inactive

Question: And the Activity (Toxoplasma gondii [1])?
Answer: inactive

Question: What about the IC50 [14] of the same molecule?
Answer: 1 µM

Question: And the Activity (Mus musculus [15])?
Answer: Non-toxic

Question: What about the Activity (Encephalitozoon cuniculi [16]) of the same molecule?
Answer: inactive

Question: What about the Activity (Toxoplasma gondii [17]) of the same molecule?
Answer: Active

Question: And the Activity (Toxoplasma gondii [18])?
Answer: inactive

Question: And the Activity (Mus musculus [19])?
Answer: Toxic

Question: And the Activity (Toxoplasma gondii [20])?
Answer: 80%

Question: And the IC50 [21]?
Answer: 0.2 µM

Question: And the Activity (Toxoplasma gondii [22])?
Answer: inactive

Question: And the Activity (Toxoplasma gondii [23])?
Answer: inactive

Question: And the Activity (Toxoplasma gondii [24])?
Answer: 100%

Question: What about the Activity (Toxoplasma gondii [25]) of the same molecule?
Answer: 30 days

Question: And the Activity (Toxoplasma gondii [26])?
Answer: inactive

Question: And the Activity (Mus musculus [27])?
Answer: Non-toxic

Question: And the Activity (Toxoplasma gondii [28])?
Answer: 30 days

Question: What about the Activity (Toxoplasma gondii [29]) of the same molecule?
Answer: 30 days

Question: What about the Activity (Toxoplasma gondii [30]) of the same molecule?
Answer: 40%

Question: `CCc1nc(-c2ccc(OC)cc2)[nH]c1-c1ccncc1` [SB-202474] was tested. Which Activity (Toxoplasma gondii [10]) did it give?
Answer: 30 days

Question: What about the Activity (Toxoplasma gondii [31]) of the same molecule?
Answer: inactive

Question: And the Activity (Toxoplasma gondii [1])?
Answer: inactive

Question: And the Activity (Toxoplasma gondii [25])?
Answer: 30 days

Question: What about the Activity (Toxoplasma gondii [28]) of the same molecule?
Answer: 30 days

Question: What about the Activity (Toxoplasma gondii [29]) of the same molecule?
Answer: 30 days

Question: Which IC50 (Toxoplasma gondii [2]) does the source give for `C[S+]([O-])c1ccc(-c2nc(-c3ccc(F)cc3)c(-c3ccncc3)[nH]2)cc1` (stereo not drawn) [SB-203580] here?
Answer: 8.5 µM

Question: What about the IC50 (Toxoplasma gondii [7]) of the same molecule?
Answer: 2.5 µM

Question: What about the Activity (Toxoplasma gondii [10]) of the same molecule?
Answer: 30 days

Question: What about the Activity (Toxoplasma gondii [25]) of the same molecule?
Answer: 30 days

Question: And the Activity (Toxoplasma gondii [28])?
Answer: 30 days

Question: And the Activity (Toxoplasma gondii [29])?
Answer: 30 days
